Earlier results on one molecule are cited in patent US7976880B2, “Pregnane glycoside compositions and Caralluma extract products and uses thereof” (priority 2003, dated 2011).

Where two headings read alike, the source gives them in different places.

The subject of this data set is appetite. As to conditions: 3 mg per kg body weight.

Turning to `O=C(O)CC(O)(C(=O)O)C(O)C(=O)O` (single isomer, unassigned; (-)) [HCA, (−)-hydroxycitrate], the Reduction in appetite result (at 6.5 hours) is “about 43%” and the Reduction in appetite result (at 24 hours) is listed as “about 29%”.
